Source: patent US6469146B1, “Radiopharmaceutical products suitable for the selective labeling of lymphocytes, and their preparation” (Cis Bio International, priority 2000, dated 2002)

Assays:
leukocytes = details: in the presence of blood cells (erythrocytes, leukocytes, platelets); documents [3], [4], [6]; cited from earlier work
human blood = assay: Labeling of blood cells: yield of cell labeling in whole blood; type: cell-based; details: 2 mCi (74 MBq) in 3 mL fresh human blood, 10 minutes, after washings
Protocol: (§1) The radiopharmaceuticals of table I (2 mCi; 74 MBq) are incubated in 3 mL of a fresh sample of human blood for 10 minutes under slow shaking. The blood composition depends upon each sample taken from healthy volunteers (average composition: 1.6±0.3.10^10 Red Globules (RG) and 2.2±0.3.10^7 White Globules (WG) with 1.2±0.3.10^7 Polymorphs (57±9%) and 0.7±0.3.10^7 Lymphocytes (35±4%)]. Non-bound radioactivity is removed by successive washings (2×10 mL of RPMI culture medium 1640) of 10 minutes at 600 g. The yield of cell labeling is determined in a CAPINTEC CRC 120 activimeter. Cell viability is controlled by the Trypan blue exclusion test.
(§2) The results obtained, namely the labeling yield (Yield) and the percentages of activity in the separated fractions are given in tables 3 to 5.

whole blood = assay: Cell separation on whole blood (Polymorphprep gradient), activity in separated fractions; type: cell-based, human; design: tested at 2 mCi (74 MBq) in 3 mL blood; details: for Cell separation on whole blood (activity %): Polymorphprep: fraction: Polymorphprep gradient; for Cell separation on whole blood (activity %): Erythrocytes: fraction: erythrocytes; for Cell separation on whole blood (activity %): Leukocytes: fraction: leukocytes; for Cell separation on whole blood (activity %): Medium: fraction: medium
Protocol: as §1, §2
In a first experiment, a separation of the blood constituents is made on a double density Polymorphprep® gradient.
Whole blood from healthy volunteers is labeled with 2 mCi of [^99mTc(ArCS3)2(ArCS2)] following the method described above. The blood constituents are then separated by the Polymorphprep® double density gradient into two separate fractions: lymphocytes and polymorphs/erythrocytes. The whole blood, diluted in 2-3 mL RPMI, is initially delicately placed on the Polymorphprep® gradient and then centrifuged (300 g, 20 min, 37° C.). […] Counting is made on each fraction using a MAXM Y07 00 367 counter in order to confirm cell constitution.

CCON(CC)C(=S)[S][99Tc](#[N])[S]C(=S)N(CC)OCC [[^99mTcN(NOET)2], nitrurobis(N-ethoxy-N-ethyldithiocarbamato)technetium-99m]
blood cell selectivity of labeling (leukocytes): leukocyte labeling, of granulocytes in particular

Fc1ccc(C(=S)S[S][99Tc]([S]SC(=S)c2ccc(F)cc2)[S]C(=S)c2ccc(F)cc2)cc1 [Example 19, [^99mTc(4-FPhCS3)2 (4-FPhCS2)]]
Yield (±3%) of cell labeling (human blood): 99% | Cell separation on whole blood (activity %): Polymorphprep (whole blood): 4% | Cell separation on whole blood (activity %): Erythrocytes (whole blood): 15% | Cell separation on whole blood (activity %): Leukocytes (whole blood): 80% | Cell separation on whole blood (activity %): Medium (whole blood): 1%

Fc1ccc(C(=S)S[S][99Tc]([S]SC(=S)c2ccc(F)cc2)[S]C(=S)c2ccc(F)cc2)cc1 [Example 20, [^99mTc(4-FPhCS3)2 (4-FPhCS2)]]
Yield (±3%) of cell labeling (human blood): 91% | Cell separation on whole blood (activity %): Polymorphprep (whole blood): 4% | Cell separation on whole blood (activity %): Erythrocytes (whole blood): 12% | Cell separation on whole blood (activity %): Leukocytes (whole blood): 84%

CCOc1ccc(C(=S)S[S][99Tc]([S]SC(=S)c2ccc(OCC)cc2)[S]C(=S)c2ccc(OCC)cc2)cc1 [Example 13, [^99mTc(4-EtOPhCS3)2(4-EtOPhCS2)]]
Yield (±3%) of cell labeling (human blood): 99% | Cell separation on whole blood (activity %): Polymorphprep (whole blood): 1% | Cell separation on whole blood (activity %): Erythrocytes (whole blood): 29% | Cell separation on whole blood (activity %): Leukocytes (whole blood): 70%

Oc1ccc(C(=S)S[S][99Tc]([S]SC(=S)c2ccc(O)cc2)[S]C(=S)c2ccc(O)cc2)cc1 [Example 18, [^99mTc(4-OHPhCS3)2(4-OHPhCS2)]]
Yield (±3%) of cell labeling (human blood): 93% | Cell separation on whole blood (activity %): Polymorphprep (whole blood): 3% | Cell separation on whole blood (activity %): Erythrocytes (whole blood): 7% | Cell separation on whole blood (activity %): Leukocytes (whole blood): 89% | Cell separation on whole blood (activity %): Medium (whole blood): 1%

CCc1ccc(C(=S)S[S][99Tc]([S]SC(=S)c2ccc(CC)cc2)[S]C(=S)c2ccc(CC)cc2)cc1 [Example 7, [^99mTc(4-EtPhCS3)2(4-EtPhCS2)]]
Yield (±3%) of cell labeling (human blood): 93% | Cell separation on whole blood (activity %): Polymorphprep (whole blood): 3% | Cell separation on whole blood (activity %): Erythrocytes (whole blood): 12% | Cell separation on whole blood (activity %): Leukocytes (whole blood): 83% | Cell separation on whole blood (activity %): Medium (whole blood): 2%

CCc1ccccc1C(=S)S[S][99Tc]([S]SC(=S)c1ccccc1CC)[S]C(=S)c1ccccc1CC [Example 10, [^99mTc(2-EtPhCS3)2(2-EtPhCS2)]]
Yield (±3%) of cell labeling (human blood): 92% | Cell separation on whole blood (activity %): Polymorphprep (whole blood): 2% | Cell separation on whole blood (activity %): Erythrocytes (whole blood): 22% | Cell separation on whole blood (activity %): Leukocytes (whole blood): 76% | Cell separation on whole blood (activity %): Medium (whole blood): 2%

[^99mTCN(CH3)(CH2)8CS2)2]
blood cell selectivity of labeling (leukocytes): selectivity for lymphocytes

CCCCc1ccc(C(=S)S[S][99Tc]([S]SC(=S)c2ccc(CCCC)cc2)[S]C(=S)c2ccc(CCCC)cc2)cc1 [Example 12, [^99mTc(4-nBuPhCS3)2(4-nBuPhCS2)]]
Yield (±3%) of cell labeling (human blood): 100% | Cell separation on whole blood (activity %): Polymorphprep (whole blood): 4% | Cell separation on whole blood (activity %): Erythrocytes (whole blood): 29% | Cell separation on whole blood (activity %): Leukocytes (whole blood): 66% | Cell separation on whole blood (activity %): Medium (whole blood): 1%
